# According to paper PMC4038024 (Clinical pharmacology and therapeutics, 2012):
# Entries after “also recorded” stand apart in the source; their conditions may differ. Where two headings read alike, the source gives them in different places.
# Columns and labels:
# [1] = for mean AUCmetabolite/AUCparent ratio, fold higher in CYP3A5 expressors than nonexpressors: blood, after oral tacrolimus; for CLurinary (based on AUCblood) / CLurinary (based on AUCplasma): 0 to 96-hour collection; for total amount of tacrolimus excreted in urine as unchanged drug over 96 hours: oral administration
# [2] = test system: mouse mixed lymphocyte reaction; settings: compared with tacrolimus; cited from earlier work
# CYP3A5 [3] = biological target: CYP3A5 (Homo sapiens, UniProt P20815); experiment: Metabolic clearance by CYP3A5; settings: compared with tacrolimus; Supplemental Figure 1
# [4] = isolated perfused rat kidney; cited from earlier work
# CYP3A5 [5] = settings: cited from earlier work
# [6] = design: species or system human; settings: for k(2,1) (glomerular filtration of tacrolimus) / k(3,1) (secretion from efferent arteriole to renal epithelium): derived from estimated parameters; for fub (exchangeable fraction of tacrolimus in blood during glomerular filtration): ordinary least-squares estimation; for Kp: human, kidney/blood, oral, 5 mg, Kp,kidney (apparent tissue-to-blood partitioning coefficient), empirical Bayesian estimation
# [7] = male rats, tacrolimus orally for four days; cited from earlier work
# clinical = settings: human, 5 mg; for half-life: blood, po, single oral dose 5 mg; for concentration at 96 h: whole blood, oral, Clast, blood concentration at 96 hour
# [8] = In vitro unbound fraction of tacrolimus in plasma and whole blood; format: in vitro ADME; settings: whole blood
# Sequence of CYP3A5 (Homo sapiens, UniProt P20815) (P20815 whole entry, the tested form may be a part): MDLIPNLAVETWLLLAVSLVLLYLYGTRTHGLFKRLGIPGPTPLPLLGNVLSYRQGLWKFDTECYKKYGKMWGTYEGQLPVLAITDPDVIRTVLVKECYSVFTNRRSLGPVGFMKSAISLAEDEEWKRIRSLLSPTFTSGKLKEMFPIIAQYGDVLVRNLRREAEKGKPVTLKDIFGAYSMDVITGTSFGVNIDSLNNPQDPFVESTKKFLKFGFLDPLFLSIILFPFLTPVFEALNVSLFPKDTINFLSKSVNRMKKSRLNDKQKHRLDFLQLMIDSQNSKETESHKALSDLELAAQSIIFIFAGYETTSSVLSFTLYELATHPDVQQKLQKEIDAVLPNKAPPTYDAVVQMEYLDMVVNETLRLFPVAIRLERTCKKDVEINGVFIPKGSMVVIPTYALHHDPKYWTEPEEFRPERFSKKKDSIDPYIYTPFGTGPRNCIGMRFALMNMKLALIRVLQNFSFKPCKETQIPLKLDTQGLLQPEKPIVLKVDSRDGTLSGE
compound,measurement,setting,value
"C=CCC1C=C(C)CC(C)CC(OC)C2OC(O)(C(=O)C(=O)N3CCCCC3C(=O)OC(C(C)=CC3CCC(O)C(OC)C3)C(C)C(O)CC1=O)C(C)CC2O (centres unmarked) [13-DMT, 13-O-desmethyl tacrolimus]","mean AUCmetabolite/AUCparent ratio, fold higher in CYP3A5 expressors than nonexpressors",[1],2.0 fold
"C=CCC1C=C(C)CC(C)CC(O)C2OC(O)(C(=O)C(=O)N3CCCCC3C(=O)OC(C(C)=CC3CCC(O)C(OC)C3)C(C)C(O)CC1=O)C(C)CC2OC (centres unmarked) [15-DMT, 15-O-desmethyl tacrolimus]",renal excretion in the two genotyped groups,[1]; CYP3A5 expressors vs nonexpressors,similar
same,"mean AUCmetabolite/AUCparent ratio, fold higher in CYP3A5 expressors than nonexpressors",[1],did not differ; also recorded: similar
"C=CCC1C=C(C)CC(C)CC(OC)C2OC(O)(C(=O)C(=O)N3CCCCC3C(=O)OC(C(C)=CC3CCC(O)C(O)C3)C(C)C(O)CC1=O)C(C)CC2OC (centres unmarked) [31-DMT, 31-O-desmethyl tacrolimus]","mean AUCmetabolite/AUCparent ratio, fold higher in CYP3A5 expressors than nonexpressors",[1],2.5 fold
same,immunosuppressive activity,[2],same immunosuppressive activity as tacrolimus
same,metabolic clearance by CYP3A5,CYP3A5 [3],comparable to that of tacrolimus
CCOC(=O)[C@H](CCc1ccccc1)N[C@@H](C)C(=O)N1CCC[C@H]1C(=O)O [enalapril],urinary clearance following inhibition of hydrolysis to enalaprilate by paraoxon,[4],increased
Cc1ncc2n1-c1ccc(Cl)cc1C(c1ccccc1F)=NC2 [midazolam],"hydroxylation activity, fold higher in CYP3A5*1/*3 than CYP3A5*3/*3 kidney microsomes",CYP3A5 [5],18 fold
C=CC[C@@H]1/C=C(\C)C[C@H](C)C[C@H](OC)[C@H]2O[C@@](O)(C(=O)C(=O)N3CCCC[C@H]3C(=O)O[C@H](/C(C)=C/[C@@H]3CC[C@@H](O)[C@H](OC)C3)[C@H](C)[C@@H](O)CC1=O)[C@H](C)C[C@@H]2OC [tacrolimus],"hydroxylation activity, fold higher in CYP3A5*1/*3 than CYP3A5*3/*3 kidney microsomes",CYP3A5 [5],18 fold
same,CLurinary (based on AUCblood),[1]; CYP3A5 expressors (N=12),2.01 ± 0.57 mL/h
same,CLurinary (based on AUCplasma),[1]; CYP3A5 expressors (N=12),50.15 ± 13.67 mL/h
same,CLurinary (based on AUCblood),[1]; CYP3A5 nonexpressors (N=12),3.15 ± 1.69 mL/h
same,CLurinary (based on AUCplasma),[1]; CYP3A5 nonexpressors (N=12),97.71 ± 59.89 mL/h
same,CLurinary/eGFR (based on AUCblood),[1]; CYP3A5 expressors (N=12),0.028 ± 0.012%
same,CLurinary/eGFR (based on AUCplasma),[1]; CYP3A5 expressors (N=12),0.58 ± 0.28%
same,total amount of tacrolimus excreted in urine as unchanged drug over 96 hours,[1]; CYP3A5 expressors,271.6 ± 147.4 ng
same,CLurinary/eGFR (based on AUCblood),[1]; CYP3A5 nonexpressors (N=12),0.048 ± 0.032%
same,CLurinary/eGFR (based on AUCplasma),[1]; CYP3A5 nonexpressors (N=12),1.48 ± 1.10%
same,total amount of tacrolimus excreted in urine as unchanged drug over 96 hours,[1]; CYP3A5 nonexpressors,642.6 ± 349.6 ng
same,"mean apparent urinary tacrolimus clearance, lower in CYP3A5 expressors compared to nonexpressors",[1]; based on blood AUC,36%
same,"mean apparent urinary tacrolimus clearance, lower in CYP3A5 expressors compared to nonexpressors",[1]; based on plasma AUC,49%
same,AUC0–96 Difference (%),[1]; expressors vs nonexpressors,−35.2%
same,AUC0–inf Difference (%),[1]; expressors vs nonexpressors,−36.5%
same,CL/F Difference (%),[1]; expressors vs nonexpressors,54.8%
same,CLurinary (based on AUCblood) Difference (%),[1]; expressors vs nonexpressors,−36.2%
same,CLurinary (based on AUCplasma) Difference (%),[1]; expressors vs nonexpressors,−48.7%
same,CLurinary/eGFR (based on AUCblood) Difference (%),[1]; expressors vs nonexpressors,−41.7%
same,Clast Difference (%),[1]; expressors vs nonexpressors,−46.2%
same,"oral tacrolimus clearance (CL/F), fold higher in CYP3A5 expressors compared to nonexpressors","[1]; mean, expressors vs nonexpressors",1.6 fold
same,"Clast (blood concentration at 96 hours), fold higher in CYP3A5 nonexpressors compared to expressors",[1]; nonexpressors vs expressors,1.9 fold
same,ER greater than fub′,[6],~ 400 fold
same,ER (extraction ratio of tacrolimus from the efferent arteriole),[6]; CYP3A5 expressors,5.1 ± 3.0%
same,"k(0,3) (rate constant, CYP3A5-mediated intra-epithelial metabolism)",[6]; CYP3A5 expressors,0.55 ± 0.52 h⁻¹
same,"k(1,3) (back flux from renal epithelium to efferent arteriole)",[6]; CYP3A5 expressors,0.34 ± 0.05 h⁻¹
same,"k(2,3) (secretion from renal epithelium to tubular lumen)",[6]; CYP3A5 expressors,0.0009 ± 0.0005 h⁻¹
same,"k(3,2) (reabsorption from tubular fluid back to renal epithelium)",[6]; CYP3A5 expressors,0.091 ± 0.063 h⁻¹
same,"k(2,1) (glomerular filtration of tacrolimus)",[6]; CYP3A5 expressors,0.94 ± 0.76 mL/h
same,"k(3,1) (secretion from efferent arteriole to renal epithelium)",[6]; CYP3A5 expressors,2368 ± 1404 mL/h
same,fub (exchangeable fraction of tacrolimus in blood during glomerular filtration),[6]; CYP3A5 expressors,0.014 ± 0.015%
same,ER (extraction ratio of tacrolimus from the efferent arteriole),[6]; CYP3A5 nonexpressors,4.3 ± 4.7%
same,"k(1,3) (back flux from renal epithelium to efferent arteriole)",[6]; CYP3A5 nonexpressors,0.36 ± 0.39 h⁻¹
same,"k(2,3) (secretion from renal epithelium to tubular lumen)",[6]; CYP3A5 nonexpressors,0.0012 ± 0.0008 h⁻¹
same,"k(3,2) (reabsorption from tubular fluid back to renal epithelium)",[6]; CYP3A5 nonexpressors,0.106 ± 0.057 h⁻¹
same,"k(2,1) (glomerular filtration of tacrolimus)",[6]; CYP3A5 nonexpressors,0.77 ± 0.51 mL/h
same,"k(3,1) (secretion from efferent arteriole to renal epithelium)",[6]; CYP3A5 nonexpressors,1800 ± 1734 mL/h
same,fub (exchangeable fraction of tacrolimus in blood during glomerular filtration),[6]; CYP3A5 nonexpressors,0.011 ± 0.006%
same,in vivo fub′ (exchangeable fraction in blood) estimated from modeling,[6]; all subjects,0.012 ± 0.011%
same,Kp,[6]; CYP3A5 expressors,12.1 ± 0.3
same,Kp,[6]; CYP3A5 nonexpressors,23.4 ± 0.04
same,"Kp,kidney in CYP3A5 expressors as % of that calculated for nonexpressors",[6]; steady-state tissue-to-blood partitioning ratio,~50%
same,"Kp,kid",[7],12.2
same,half-life,"clinical; t1/2, CYP3A5 expressors (N=12)",29.9 ± 4.8 h
same,half-life,"clinical; t1/2, CYP3A5 nonexpressors (N=12)",31.7 ± 4.3 h
same,concentration at 96 h,clinical; CYP3A5 expressors (N=12),0.2 ± 0.1 ng/mL
same,concentration at 96 h,clinical; CYP3A5 nonexpressors (N=12),0.4 ± 0.1 ng/mL
same,fraction unbound,[8],0.00078 ± 0.00026
